Measurements reported in US20150216865A1, “METHODS OF TREATING A BRUTON'S TYROSINE KINASE DISEASE OR DISORDER” (Celgene Avilomics Research, Inc., priority 2012, published 2015).
“Also recorded” adds a separate entry of the source. Read-outs that look alike come from different tables or passages of the source. Marks after values point to notes of the source that are not given here.

How the values were obtained:
IL-6 = test: Inflammatory chemokine and cytokine analysis in CIA mice, IL-6; format: in vivo, mouse
From the text: Inflammatory Chemokine and Cytokine Analysis: At the termination of the CIA study, mice were sacrificed and blood was harvested via cardiac punch using EDTA as an anticoagulant. […] Levels of various mouse cytokines in plasma were quantified using Bioplex® Suspension Array System according to manufacturer's instruction (BioRad, mTNFa (171-G5023M), mIL-6 (171-G5007M), mKC (171-G5018M), mIFNg (171-G5017M), mIL-17 (Z60-00006Z2), mIL-1β (171-G5002M), mMCP-1 (171-G5019M).

TNF-a = test: Inflammatory chemokine and cytokine analysis in CIA mice, TNF-a; format: in vivo, mouse
Experimental: Inflammatory Chemokine and Cytokine Analysis: At the termination of the CIA study, mice were sacrificed and blood was harvested via cardiac punch using EDTA as an anticoagulant. Following centrifugation, serum was diluted 1:4 with a mouse serum diluents kit (BioRad cat#171-305004). Levels of various mouse cytokines in plasma were quantified using Bioplex® Suspension Array System according to manufacturer's instruction (BioRad, mTNFa (171-G5023M), mIL-6 (171-G5007M), mKC (171-G5018M), mIFNg (171-G5017M), mIL-17 (Z60-00006Z2), mIL-1β (171-G5002M), mMCP-1 (171-G5019M).

[1] = Clinical single dose study in healthy human volunteers, pharmacokinetics; format: in vivo; details: single oral 2 mg/kg
Experimental: Clinical Study: A double blind, placebo-controlled, ascending single dose, randomized study in normal healthy human volunteers was conducted at a single clinical research unit in accordance with Declaration of Helsinki principles. Informed consent statements were obtained from all subjects prior to inclusion in the study. Subjects were admitted to the unit 1 day before dosing and discharged 96 h after dosing.

Solubility = format: physicochemical
Environmental stability = format: physicochemical
[2] = NOD mouse model of Sjogren's syndrome, bodyweight; format: in vivo
Experimental: Non-Obese Diabetic Mouse (NOD) Model of Sjogren's Syndrome. Male Non Obese Diabetic (NOD) mice from the KWS BioTest NOD colony and male BALB/c mice were randomly allocated to experimental groups and allowed to acclimatise for one week prior to the beginning of the study. From six weeks of age, animals were treated according to the administration schedule in Table 5, below. Each group consisted of n=12 animals. The administration volume was 15 ml/kg from 6-12 weeks of age. The administration volume was then decreased to 10 ml/kg from 13-20 weeks of age. The vehicle was distilled water pH 3.0-3.5 for Group 7. […] Animals were weighed at the start of the study (Day 0) and once per week until termination. […] Bodyweight data, expressed in grams, were analysed by two-way ANOVA followed by Dunnett's post-test for multiple comparisons to the vehicle-treated group and presented as mean bodyweights for each group (FIG. 12). Bodyweight data, expressed as a percentage of the initial bodyweight, were analysed by two-way ANOVA followed by Dunnett's post-test for multiple comparisons to the vehicle-treated group and presented as mean percentage of the initial bodyweight ±SEM (FIG. 13).

male NOD mice [3] = test: NOD mouse model, lachrymal gland secretion (cotton thread test); format: in vivo; details: besylate
Experimental: (§1) Non-Obese Diabetic Mouse (NOD) Model of Sjogren's Syndrome. Male Non Obese Diabetic (NOD) mice from the KWS BioTest NOD colony and male BALB/c mice were randomly allocated to experimental groups and allowed to acclimatise for one week prior to the beginning of the study. From six weeks of age, animals were treated according to the administration schedule in Table 5, below. Each group consisted of n=12 animals. The administration volume was 15 ml/kg from 6-12 weeks of age. The administration volume was then decreased to 10 ml/kg from 13-20 weeks of age. The vehicle was distilled water pH 3.0-3.5 for Group 7. The vehicle was 0.5% methylcellulose and 0.25% Tween® 80 for all other groups.
Measurement of lachrymal gland secretion. Lachrymal gland secretion was measured every other week from six weeks of age using a cotton thread test. Briefly, animals were anaesthetised and a fluorescein-stained cotton thread was inserted under the eye lid in the medial canthus region and held in place for two minutes. Results for each group were graphed and presented with SEM's.
Lachrymal Gland Secretion. Lachrymal gland secretion was measured by the cotton thread test. Data are expressed as millimetres per gram bodyweight. Data from this readout are indicative of inflammatory changes in the lachrymal gland, but significant changes are typically only seen from weeks 18 onwards in NOD mice. Data were analysed by two-way ANOVA for repeated measures followed by Dunnett's post-test for multiple comparisons to the vehicle-treated group and presented as mean±SEM (FIG. 14).

male NOD mice [4] = test: NOD mouse model, salivary gland secretion (pilocarpine-induced salivation assay); format: in vivo; details: all treatment groups
Experimental: as §1
Measurement of salivary gland secretion. Salivary gland secretion was measured every other week from six weeks of age. […] The weight of saliva collected was then measured using digital scales. […]
Salivary Gland Secretion. Salivary gland secretion was measured using the pilocarpine-induced salivation assay. Data are expressed as milligram of saliva per gram bodyweight. Data from this readout are indicative of inflammatory changes in the salivary glands, but significant changes are typically only seen from weeks 18 onwards in NOD mice. […] Data were analysed by two-way ANOVA followed by Dunnett's post-test for multiple comparisons to the vehicle-treated group (FIG. 16).

## C=CC(=O)Nc1cccc(Nc2nc(Nc3ccc(OCCOC)cc3)ncc2F)c1 [Compound 1 besylate, N-(3-(5-fluoro-2-(4-(2-methoxyethoxyl)phenylamino)pyrimidin-4-ylamino)phenyl)acrylamide besylate]
IL-6; 3 mg/kg
  IL-6 mean: 15.4 pg/mL
IL-6; 10 mg/kg
  IL-6 mean: 9.1* pg/mL
IL-6; 30 mg/lkg
  IL-6 mean: 10.5* pg/mL
TNF-a; 3 mg/kg
  TNF-a mean: 160.2 pg/mL
TNF-a; 10 mg/kg
  TNF-a mean: 123.0* pg/mL
TNF-a; 30 mg/lkg
  TNF-a mean: 117.0* pg/mL
[1]; plasma, 6 subjects, read-out: mean maximum plasma concentration (Cmax)
  Cmax: 542 ng/mL
[1]; plasma, read-out: median terminal elimination half-life (converted)
  half-life: 1.9 h
[1]
  time to peak plasma concentrations: 30 to 120 min
[1]; all subjects
  plasma concentrations at 48 hours post dose: below the lower limit of quantification
[1]; limit of detection 0.1 ng/mL
  plasma concentrations within 24 hours post dose: near or below the lower limit of detection
Solubility; aqueous solution, aqueous buffer, approximately pH 3.0, read-out: maximum aqueous solubility
  solubility: 400 µg/mL
Solubility; ethanol, organic solvent or mixture, read-out: solubility in ethanol
  solubility: ~10000 µg/mL
Solubility; water, read-out: solubility in water
  solubility: ~160 µg/mL
Environmental stability
  environmental instabilities (heat, acid, base): no environmental instabilities
[2]; 10 mg/kg SID, 8 weeks and 10 to 20 weeks of age
  bodyweight gain (% of initial bodyweight) vs vehicle-treated group: significant reduction in bodyweight gain
[2]; 10 mg/kg SID, at 13, 17, 19 and 20 weeks of age
  bodyweight (grams) vs vehicle-treated group: significant decrease in bodyweight
[2]; 30 mg/kg SID, 11 to 20 weeks of age
  bodyweight gain (% of initial bodyweight) vs vehicle-treated group: significant reduction in bodyweight gain
[2]; 30 mg/kg SID, from 14 to 20 weeks of age
  bodyweight (grams) vs vehicle-treated group: significant decrease in bodyweight
[2]; 50 mg/kg twice daily, 10 to 20 weeks of age
  bodyweight gain (% of initial bodyweight) vs vehicle-treated group: significant reduction in bodyweight gain
[2]; 50 mg/kg twice daily, from 11 to 20 weeks of age
  bodyweight (grams) vs vehicle-treated group: highly significant decrease in bodyweight
[2]; 100 mg/kg SID, 8 weeks and 10 to 20 weeks of age
  bodyweight gain (% of initial bodyweight) vs vehicle-treated group: significant reduction in bodyweight gain
[2]; ad libitum 0.16 mg/ml in drinking water, 8 to 20 weeks of age
  bodyweight gain (% of initial bodyweight) vs vehicle-treated group: highly significant reduction in bodyweight gain
[2]; ad libitum 0.16 mg/ml in drinking water, 8 weeks and 10 to 20 weeks of age
  bodyweight (grams) vs vehicle-treated group: highly significant decrease in bodyweight
Male NOD mice [3]; 30 mg/kg SID, 10, 18 and 20 weeks of age
  lachrymal gland secretion vs vehicle: significantly higher; also recorded: statistically significant increase
Male NOD mice [3]; 50 mg/kg twice daily, 6, 8, 10, 18 and 20 weeks of age
  lachrymal gland secretion vs vehicle: significantly higher; also recorded: statistically significant increase
Male NOD mice [3]; 100 mg/kg SID, 8, 10, 12, 16, 18 and 20 weeks of age
  lachrymal gland secretion vs vehicle: significantly higher; also recorded: statistically significant increase
Male NOD mice [3]; ad libitum 0.16 mg/ml in drinking water, 10, 16, 18 and 20 weeks of age
  lachrymal gland secretion vs vehicle: significantly higher; also recorded: statistically significant increase
Male NOD mice [4]
  salivary gland secretion between groups: No significant differences
